“Also recorded” adds a separate entry of the source.
Key:
PAR1 [1] = molecular target: T1, PAR1 (Mus musculus, UniProt P30558); assay: Neural precursor cell proliferation (BrdU incorporation); format: cell-based; design: endogenous in cells; details: 70, 35, 10 or 1 nM; NPCs from adult SVZ
T1 sequence (P30558 22-430): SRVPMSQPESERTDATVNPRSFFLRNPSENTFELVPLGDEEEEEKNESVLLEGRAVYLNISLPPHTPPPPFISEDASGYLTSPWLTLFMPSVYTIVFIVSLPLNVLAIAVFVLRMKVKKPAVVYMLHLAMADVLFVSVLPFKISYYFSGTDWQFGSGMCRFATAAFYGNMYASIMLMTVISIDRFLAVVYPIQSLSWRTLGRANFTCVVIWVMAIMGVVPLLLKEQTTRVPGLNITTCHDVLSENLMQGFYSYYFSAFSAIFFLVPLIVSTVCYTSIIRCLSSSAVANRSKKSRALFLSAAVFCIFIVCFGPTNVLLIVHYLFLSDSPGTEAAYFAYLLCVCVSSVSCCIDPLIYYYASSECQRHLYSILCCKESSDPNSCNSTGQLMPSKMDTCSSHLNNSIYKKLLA
Description: Effects of pharmacologic inhibition of PAR1 on NPC proliferation in vitro: NPCs were isolated from the SVZ of 8 week-old adult C57BL6/J mice, cultured in suspension, and treated with 70, 35, 10, or 1 nM of SCH79797, a small molecule inhibitor of PAR1.

PAR1 [2] = molecular target: T1, PAR1; assay: Oligodendrocyte gene expression after PAR1 inhibitor treatment, real time RT-PCR; format: cell-based; design: endogenous in cells; host or cells: primary mouse oligodendrocytes (OPCs shaken from P1 cortical mixed glial cultures); details: 70 nM for 48 hours
PAR1 [3] = molecular target: T1, PAR1; assay: Organotypic cerebellar slice culture with PAR1 inhibitor; format: cell-based; design: endogenous in cells; host or cells: primary mouse oligodendrocytes (OPCs shaken from P1 cortical mixed glial cultures); details: 70 nM, 7 days
Description: Pharmacologic inhibition of PAR1 in an organotypic cerebellar slice culture system: Cerebellar slices (350 μm) from postnatal day 8 mouse brain were grown in cell culture for 7 days in the presence or absence of 70 nM SCH79797, a small molecule inhibitor of PAR1. Cerebellar slices were then fixed with 2% paraformaldehyde and stained using immunofluorescence techniques for myelin associated makers, including MBP, a marker of mature oligodendrocytes (CC-1), and for a marker of oligodendrocyte progenitor cells (NG2). The photomicrographs in FIG. 16 show staining for each individual antigen, or for all of the antigens collectively in a single slice, as indicated.

Erk1/2 phosphorylation = assay: Klk6-PAR signaling assay, Erk1/2 phosphorylation by Western blot in Oli-neu; format: cell-based, mouse
Description: Klk6-PAR signaling assays: To examine the ability of Klk6 to mediate PAR-dependent signaling in oligodendrocytes, Oli-neu oligodendroglia (3.5×10^5 cells/well in six-well plates) were treated with Klk6 (150 nM) for 10 min, followed by protein harvest. Cell lysates were analyzed for phosphorylated or nonphosphorylated Erk1/2 by Western blot. In experiments to determine the role of PARs in Klk6 signaling, Oli-neu were preincubated with the PAR1 antagonist, SCH79797 dihydrochloride (50 nM, Tocris Biosciences, Minneapolis, MN) for 30 minutes prior to Klk6 application.
Western blot: Oli-neu lysates were obtained using a buffer containing 1% NP40, 0.5% deoxycholate, 10% glycerol, and 20 mM Tris base and separated on SDS-polyacrylamide gels prior to transfer. Membranes were blocked with 5% milk in TBS-T and incubated overnight with primary antibodies including rabbit anti-phospho-Erk1/2 (1:1,000, Cell Signaling Technology, Danvers, MA), followed with a species-appropriate horseradish peroxidase-conjugated secondary antibody (1:20,000 GE Healthcare Unlimited, UK). Signal was detected using Chemiluminescence Supersignal Pico (Pierce, Rockford, IL). Western blots were repeated three times from independent cultures, scanned, and quantified by densitometry (BioRad Quantity One 1-D Analysis Software, BioRad, Hercules, CA). Erk1/2 signal was normalized to its nonphosphorylated form. Equal loading was verified by reprobing blots for […] (Novus Biologicals, Littleton, CO).

[4] = test system: oligodendrocyte progenitor cells (OPCs); assay: OPC process outgrowth; format: cell-based, mouse
Description: Oligodendrocyte Cultures: Purified cortical oligodendrocyte progenitor cells (OPCs) and differentiated oligodendrocytes were isolated from mixed glial cultures derived from postnatal day 1 mice (McCarthy and de Vellis, J Cell Blot 85:890-902, 1980). Glial cultures were grown in media containing DMEM, 2 mM Glutamax, 1 mM sodium pyruvate, 20 mM HEPES, and 10% heat-inactivated fetal calf serum (Atlanta Biologicals, Lawrenceville, GA). OPCs were isolated from 10 days-in-vitro (DIV) mixed glial cultures by overnight shaking and purified by differential adhesion. OPCs were seeded in defined Neurobasal A media containing 1% N2, 50 U/mL penicillin/streptomycin, 2 mM Glutamax, 1 mM sodium pyruvate, 0.45% glucose, and 50 μM β-mercaptoethanol (Sigma Aldrich, USA). OPCs were seeded at 3×10^4/cm^2 onto tissue culture plastic or 12 mm glass cover slips coated with poly-L-lysine (PLL, 10 μg/mL). After 24 h, cultures were 92-98% immunoreactive (IR) for sulfatide (O4) and by 72 hours at least 80% were also MBP-IR.
PAR agonist-induced changes in oligodendrocyte morphology: To determine the effects of recombinant Klk6, Klk1, thrombin, or PAR1-AP on oligodendroglia, 3 DIV PAR1^+/+, PAR1^−/−, and PAR2^−/− oligodendrocytes, PAR1^+/+ OPCs immediately post purification, or Oli-neu cells were grown on cover slips in the presence of agonists for 24 h. For ATP toxicity assays, oligodendrocytes were incubated with ATP (50 μM, Sigma Aldrich) in the presence of Klk6 or Klk1. Following each treatment, oligodendrocyte and OPC cultures were immunolabeled for O4 to visualize the cell body and processes. Oli-neu processes were visualized by staining the actin cytoskeleton with Cy3-conjugated Phalloidin.
To assess the effects of Klk6 and other PAR1 agonists on oligodendrocyte morphology and process stability, 20× digital micrographs were overlaid with a 780 μm^2 grid and ImageJ software 1.45r (National Institutes of Health) used to record cell number and the number of processes crossing horizontal grid lines (Scarisbrick et al., Brain 125:1283-1296, 2002). Data are expressed as the mean number of O4^+ or Phalloidin^+ processes per DAPI^+ cell (±SEM).
Changes in OPC or oligodendrocyte morphology were quantified from five microscopic fields per cover slip with the mean and SEM calculated across three cover slips per experiment. Each experiment was repeated at least twice using independent cultures. Analysis of oligodendrocyte morphology was performed without knowledge of treatment groups.

Compound: CC(C)c1ccc(Cn2ccc3c4c(N)nc(NC5CC5)nc4ccc32)cc1 [SCH79797]
- BrdU incorporation (PAR1 [1]): greater levels
- NogoA RNA (PAR1 [2]): decrease
- Olig2 RNA (PAR1 [2]): decrease
- expression of MBP RNA (PAR1 [2]): significant increase
- expression of PLP RNA (PAR1 [2]; oligodendrocytes 24 hours in culture): significant increase
- number of mature oligodendrocytes (CC-1) (PAR1 [3]): significant increases
- number of progenitor cells positive for NG2 (PAR1 [3]): significant increases
- abundance of MBP (PAR1 [3]; P8 cerebellar slices): significant increases
- ability of Klk6 to induce MAPK (Erk1/2) signaling in presence of inhibitor (Erk1/2 phosphorylation; SCH79797 50 nM, preincubated 30 minutes): blocked; also recorded: abolished
- Erk1/2 phosphorylation (Erk1/2 phosphorylation; treatment alone, Klk6 10 minutes): No significant changes
- Klk6-mediated inhibition of process outgrowth in presence of inhibitor ([4]; SCH79797 50 nM): diminished
- attenuation of the ability of Klk6 to reduce OPC process outgrowth ([4]; SCH79797 50 nM for 3 hours prior to Klk6): ~34%
- OPC process outgrowth relative to vehicle controls ([4]; SCH79797 alone): no significant effect

— patent publication US11813264B2, “PAR1 modulation to alter myelination” (Mayo Foundation for Medical Education and Research, priority 2014, dated 2023)
